From ChEMBL document CHEMBL4316596, “Antimicrobial Peptides with High Proteolytic Resistance for Combating Gram-Negative Bacteria” (J Med Chem, 2019)
Calls of active or inactive are those of the source. No cut-off for these calls is given here.

Assays:
RAW264.7 = test: Inhibition of LPS-stimulated NO production in mouse RAW264.7 cells at 16 uM after 20 hrs by Griess reagent-based assay; format: functional, cell-based
Escherichia coli = test: Induction of outer membrane permeabilization in Escherichia coli ATCC 25922 at 1 to 64 uM by NPN-dye based assay; format: organism-based

H-IRPIIRPIIRPIIRPIIRPIIRPIIRPI-NH2 was tested, and the inhibition (RAW264.7) was “Active” and the Activity (Escherichia coli) was “Active”.
